# US11173156B2, “Solid forms of a kynurenine-3-monooxygenase inhibitor” (CHDI Foundation, Inc., priority 2019, dated 2021)
# How the values were obtained:
# Format in all cases: physicochemical
# [1] = Deliquescence of salts/co-crystals during exposure to 75% RH; settings: ambient temperature, 3 day exposure; for Observation (deliquescence): visual
# Method: The salts identified from the salt/co-crystal screen of Compound I (see section 4 above) were assessed visually for deliquescence during exposure to 75% RH at ambient temperature (Table 5). […] The materials from these experiments were recovered and re-analyzed by XRPD to determine if changes in solid form occurred.
# [2] = XRPD analysis of remaining solids from aqueous solubility assessments; settings: solids recovered from mother liquor of aqueous solubility assessment
# Source text: Compound I ethylenediamine A+B disproportionated, as peaks similar to those observed for Compound I free acid Material C were observed.
# [3] = Approximate aqueous solubility of salts/co-crystals (visual, solvent addition method); settings: water; for solubility: estimated visually, solvent addition method
# Method: (§1) A weighed sample was treated with aliquots of the test solvent at room temperature. The mixture was sonicated between additions to facilitate dissolution. Complete dissolution of the test material was determined by visual inspection. Solubility was estimated based on the total solvent used to provide complete dissolution. Some samples were then heated and observed visually for complete dissolution. The actual solubility may be greater than the value calculated because of the use of solvent aliquots that were too large or due to a slow rate of dissolution. […] If complete dissolution was achieved as a result of only one aliquot addition, the solubility is expressed as “greater than.”
# [4] = Solubility of Compound I sodium salt forms in solvents and binary solvent systems; settings: thermodynamic from solid, 60° C., read-out: Solubility
# Method: as §1
# [5] = Dynamic vapor sorption/desorption (DVS); settings: for material recovered from the DVS analysis compared with starting material by XRPD: after DVS
# Method: Moisture sorption/desorption data were collected on a VTI SGA-100 Vapor Sorption Analyzer. NaCl and PVP were used as calibration standards. Samples were not dried prior to analysis. Sorption and desorption data were collected over a range from 5% to 95% RH at 10% RH increments under a nitrogen purge. The equilibrium criterion used for analysis was less than 0.0100% weight change in 5 minutes with a maximum equilibration time of 3 hours. Data were not corrected for the initial moisture content of the samples.
# [6] = Slurry experiments (form stability); settings: for XRPD: room temp.; for relative stability of the form (in words): at the conditions evaluated
# Method: Solutions were prepared by adding enough solids to a given solvent so that excess solids were present. The mixture was then agitated in a sealed vial at either ambient or an elevated temperature. After a given amount of time, the solids were isolated for analysis.
# The formation and stability of solid forms of the sodium salt of Compound I was further evaluated via slurry experiments. The slurries were formed by combining Compound I sodium Pattern A and a solvent, and allowing the slurry to equilibrate at room temperature. If a free flowing slurry was not achieved, an additional amount of the respective solvent was added before the room temperature equilibration step. All slurries were isolated via centrifuge filtration after five days and twelve days of equilibration. The solids were analyzed by XRPD to check for pattern conversion (Table 13).
# [7] = Stability at elevated temperatures (XRPD, HPLC); settings: for chemical and physical form changes after storing at elevated temperature: about 60° C.; for HPLC: after storage at 60 ° C. (time point not given)
# Method: The stability of Compound I sodium Patterns A, C, and D and Form B, at about 60° C. was evaluated. These forms were weighed into vials covered with a Kimwipe tissue and stored in an oven at 60° C. and ambient pressure. After three days and ten days of exposure, the solids were analyzed by XRPD to check for form conversion. […].
# [8] = listed as Ethylenediamine B + A
# [9] = acetone and/or isopropanol (trituration, single form or competitive slurry)
# [10] = solvent systems with high water activity
smiles,measurement,setting,value
"O=C(O)c1cc(-c2ccc(OC3CC3)c(Cl)c2)ncn1 [Compound I benzathine Form A, 6-(3-chloro-4-cyclopropoxyphenyl)pyrimidine-4-carboxylic acid]",Result (XRPD after exposure),[1]; listed as Benzathine A,Benzathine A
same,Observation (deliquescence),[1],no deliquescence
same,Result (XRPD of remaining solids),[2],remained unchanged by XRPD
same,Result (XRPD of remaining solids),[2]; listed as Benzathine A,Benzathine A
same,aqueous solubility (in words),[3],poor low aqueous solubility
same,solubility,[3]; listed as Benzathine A,<7000 µg/mL
"O=C(O)c1cc(-c2ccc(OC3CC3)c(Cl)c2)ncn1 [Compound I ethylenediamine Materials A+B, 6-(3-chloro-4-cyclopropoxyphenyl)pyrimidine-4-carboxylic acid]",Observation (deliquescence),[1],no deliquescence
same,Result (XRPD of remaining solids),[2]; listed as Compound I ethylenediamine A+B,disproportionated
same,Result (XRPD of remaining solids),[2]; [8],Ethylenediamine B + Free Acid C
same,aqueous solubility (in words),[3],suitable aqueous solubility
same,solubility,[3]; [8],<10000 µg/mL
"O=C(O)c1cc(-c2ccc(OC3CC3)c(Cl)c2)ncn1 [Compound I potassium Material A, 6-(3-chloro-4-cyclopropoxyphenyl)pyrimidine-4-carboxylic acid]",Observation (deliquescence),[1],no deliquescence
same,Result (XRPD of remaining solids),[2],converted to a new material
same,Result (XRPD of remaining solids),[2]; listed as Potassium A,broad reflections
same,aqueous solubility (in words),[3],suitable aqueous solubility
same,solubility,[3]; listed as Potassium A,<4000 µg/mL
"O=C(O)c1cc(-c2ccc(OC3CC3)c(Cl)c2)ncn1 [Compound I sodium Pattern A, 6-(3-chloro-4-cyclopropoxyphenyl)pyrimidine-4-carboxylic acid]",solubility,"[4]; organic solvent or mixture, 2-MeTHF",< 1100 µg/mL
same,solubility,"[4]; organic solvent or mixture, ACN",< 1200 µg/mL
same,solubility,"[4]; organic solvent or mixture, Acetone",< 1300 µg/mL
same,solubility,"[4]; organic solvent or mixture, BuOH",< 1200 µg/mL
same,solubility,"[4]; organic solvent or mixture, DCM",< 1300 µg/mL
same,solubility,"[4]; organic solvent or mixture, DMF",5800 to 7700 µg/mL
same,solubility,"[4]; organic solvent or mixture, DMSO",7500 to 11300 µg/mL
same,solubility,"[4]; organic solvent or mixture, EtOAc",< 1100 µg/mL
same,solubility,"[4]; organic solvent or mixture, EtOH",< 1300 µg/mL
same,solubility,"[4]; organic solvent or mixture, Heptane",< 1200 µg/mL
same,solubility,"[4]; organic solvent or mixture, IPA",< 1100 µg/mL
same,solubility,"[4]; organic solvent or mixture, IPAc",< 1100 µg/mL
same,solubility,"[4]; organic solvent or mixture, MEK",< 1300 µg/mL
same,solubility,"[4]; organic solvent or mixture, MIBK",< 1200 µg/mL
same,solubility,"[4]; organic solvent or mixture, MTBE",< 1100 µg/mL
same,solubility,"[4]; organic solvent or mixture, MeOH",5000 to 6700 µg/mL
same,solubility,"[4]; organic solvent or mixture, NMP",10300 to 20500 µg/mL
same,solubility,"[4]; organic solvent or mixture, THF",< 1300 µg/mL
same,solubility,"[4]; organic solvent or mixture, Toluene",< 1100 µg/mL
same,solubility,"[4]; organic solvent or mixture, c-Hexane",< 1200 µg/mL
same,solubility,[4]; Water,10000 to 20000 µg/mL
same,hygroscopicity by DVS analysis (in words),[5],hygroscopic
same,deliquescence (in words),[5]; DVS analysis,did not show any indications of deliquescence
same,material recovered from the DVS analysis compared with starting material by XRPD,[5],substantially the same as the starting material
same,DVS weight gain,[5]; at 60% RH,about 4.9%
same,DVS weight gain,[5]; at 90% RH,about 21.2%
same,XRPD,"[6]; ACN slurry, 12 days, dry",Amorphous
same,XRPD,"[6]; ACN slurry, 12 days, wet",Amorphous
same,XRPD,"[6]; DCM slurry, 12 days, dry",Low
same,XRPD,"[6]; DCM slurry, 12 days, wet",Low
same,XRPD,"[6]; EtOAc slurry, 5 days",Amorphous
same,XRPD,"[6]; EtOH slurry, 5 days",Amorphous
same,XRPD,"[6]; THF slurry, 5 days",Amorphous
same,XRPD,"[6]; THF slurry, 12 days, dry",Amorphous
same,XRPD,"[6]; THF slurry, 12 days, wet",Amorphous
same,form conversion in slurry / trituration,[6]; [9],converted to Compound I sodium Form B
same,relative stability of the form (in words),[6],metastable relative to Compound I sodium Form B
same,form conversion in slurry / trituration,[6]; [10],rehydrated to Compound I Form E
same,stability in slurry (in words),"[6]; water, toluene, DCM and MEK",stable as a single form for about five days
same,chemical and physical form changes after storing at elevated temperature,[7],No chemical and physical form changes were observed
same,HPLC,[7],>99.9 % AUC
"O=C(O)c1cc(-c2ccc(OC3CC3)c(Cl)c2)ncn1 [Compound I sodium Pattern C, 6-(3-chloro-4-cyclopropoxyphenyl)pyrimidine-4-carboxylic acid]",hygroscopicity by DVS analysis (in words),[5],slightly hygroscopic
same,material recovered from the DVS analysis compared with starting material by XRPD,[5],substantially the same as the starting material
same,DVS weight gain,[5]; at 60% RH,about 1.9%
same,DVS weight gain,[5]; at 90% RH,about 8.4%
same,form conversion in slurry / trituration,[6]; [9],converted to Compound I sodium Form B
same,relative stability of the form (in words),[6],not stable
same,time stable in slurry,[6]; methanol,about 10 days
same,form conversion in slurry / trituration,[6]; [10],covert to Compound I sodium Form E
same,chemical and physical form changes after storing at elevated temperature,[7],No chemical and physical form changes were observed
same,HPLC,[7],>99.9 % AUC
